According to US6416965B2, “Screening methods for presqualene disphosphate analogs” (Brigham and Women's Hospital, priority 1997, dated 2002):

Tests used:
[1] = system: electroporated neutrophils; assay: Superoxide anion generation (NADPH oxidase activity) by electroporated neutrophils; assay type: cell-based, human
Source text: To test the impact of compounds VI and VIII on neutrophil responses, the isolated lipids were introduced into neutrophils by electroporation prior to determining NADPH oxidase activity. […] Prenyl cysteine analogues can disrupt G-protein interaction with activated FMLP receptors (Scheer, A. & Gierschik, P. Biochemistry. 34,4952-4961 (1995), the teachings of which are incorporated herein by reference); therefore to determine compound VI's level of action, neutrophil superoxide anion generation was examined in the presence of phorbol 12-myristate 13-acetate (PMA), a potent trigger for O2- production which bypasses cell surface receptors to stimulate protein kinase C and subsequent NADPH assembly (see for example, Baggiolini, M., Boulay, F., Badwey, J. A. & Curnutte, J. T. FASEB J. 7, […] (1993); FIG. 3c).
After electroporation, cells in cytochrome c (0.7 mg/ml) were exposed (10 min, 37° C.) to PMA (10^−7 M), FMLP (10^−7 M) plus cytochalasin b (15 μg/ml), compound VI (1 μM) or compound VIII (1 μM) and supernatants monitored at 550 nm. Values represent the mean±SEM for n≧4.
(§1) Neutrophils (10^7/500 μl) were electroporated (1.65 kV/cm, 250 μF, Ω∞, Invitrogen Electroporator VI) at 0° C. in the presence of 10−^9-10−^6 M compound VI, VIII, FDP, FMP, squalene or vehicle (ethanol 0.2%). After electroporation, cells, in cytochrome c (0.7 mg/ml), were exposed (10 minutes, 37° C.) to either cytochalasin b (5 μg/mL) and FMLP (10^−7 M)(a) or PMA ((10^−7 M)(b) and supernatants monitored at […]. Electroporation gave a 49.9% reduction in FMLP-stimulated NADPH oxidase compared to naive cells. Values (FIGS. 4a and 4b) represent the mean±SEM for n≧3, d≧6. For adhesion (FIGS. 4c and 4d), changes in light transmittance were monitored (as in Fiore, S., Nicolaou, K. C., Caulfield, T., Kataoka, H. & Serhan, C. N. Biochem. J. 266, 25-31 (1990), the teachings of which are incorporated herein by reference) after addition of compounds VI, VIII (1.6 μM) or vehicle (0.5 min) and FMLP (0.5-5 μM) (2.5 min). Cell viability remained>99%. Values represent the mean±SEM for n=3, d=9. 1,4,5-inositol-triphosphate levels were determined (Amersham) in fresh PMN (10^7 cells) exposed (5 minutes, 37° C.) to compound VI, compound VIII (1 μM) or vehicle and stimulated with FMLP (10^−7M, 37° C.) (as in FIG. 4e). % Inhibition after 10 second exposure to FMLP is reported as mean±SEM for n=4, d≧8. *p <0.05 in Student's paired t-test compared with control, while “NS” indicates no significant change compared to incubations in the presence of vehicle (ethanol 0.2%) alone. Stereochemistry of PSDP and PSMP (FIG. 4f) were assigned by routine methods (Poulter, C. D. and Rilling, H. C. Acc. Chem. Res. 11, 307-313, (1978), the teachings of which are hereby incorporated by reference).

neutrophils = assay: Neutrophil homotypic adhesion (aggregation, light transmittance); assay type: cell-based, human
Method: as §1

human neutrophils = assay: FMLP-stimulated 1,4,5-inositol triphosphate (IP3) formation as surrogate for phospholipase C activity; assay type: cell-based; conditions: nM-μM amounts
Method: as §1
In addition to PLD, phospholipase C plays a critical role in intracellular signaling via the hydrolysis of inositol lipids to diacyl glyceride (DAG) and inositol trisphosphate (IP3) to effect a cascade of cellular events in response to pro-inflammatory stimuli. DAG activates protein kinases and is converted, in part, to phosphatidic acid by DAG kinase. Therefore, PLC together with DAG kinase provides a second major source of phosphatidic acid in human neutrophils (Agwu, DE, et al., Journal of Clinical Investigation 1991; 88:531). […] To this end, the impact of PSDP on fMLP-stimulated IP3 formation as a surrogate for phospholipase C activity was examined (FIG. 4e).
Amersham's D-myo-inositol 1,4,5-trisphosphate (IP3) [^3H] assay was used for this procedure (Amersham code TRK 1000, including product assay, the contents of which are incorporated herein by reference). The assay is based on procedures developed by Takata S. et al. J. Clin. Invest. 93:499 (1994) and Dillon S. B. et al. J. Biol. Chem. 262:11546 (1987), the contents of which are incorporated herein by reference in their entirety. [drawing 24] […]

neutrophil sonicates = assay: Superoxide anion generation by neutrophil sonicates (post-nuclear supernatants, cytochrome c reduction); assay type: biochemical, human; conditions: arachidonic acid C20:4 75 μM, phosphatitic acid C10:0 100 μM
Method: Neutrophil lipids were saponified (10% KOH in methanol, 37° C., 30 min), extracted (Van Dessel, G. A. F., Lagrou, A. R. Hilderson, H. J. J. & Dierick, W. S. H. In: CRC Handbook of Chromatography (eds Mukherjee, K. D., Weber, N. & Sherma, J.) 321-337 (CRC Press, Boca Raton, 1993)) and separated by CC4 silica (1 gm/10^8 PMN) column chromatography as in FIG. 1f. […] After 2 min (37° C.) in a thermal-jacketed cuvette, β-NAPH (200 μM) was added to initiate reactions and absorbance (550 nm) was monitored at 15 second intervals. […]
To determine O2- production (FIGS. 1a-c), post-nuclear supernatants from neutrophils after sonication (0.1-0.5 mg protein/ml) (as generally described in Bromberg, Y. & Pick, E. Cell. Immunol. 88, 213-221 (1984), the teachings of which are incorporated herein by reference), 100 μM phosphatitic acid (C10:0, Avanti Polar Lipids, Inc.) and lipid extracts (0.1% ethanol) were added to cytochrome c (60 μM), sucrose (170 mM), EGTA (1 mM), FAD (10 μM), NaN3 (2 mM) and either superoxide dismutase (30 ug/ml) or H20 at 0° C. […] After 2 min (37° C.) in a thermal-jacketed cuvette, B-NADPH (200 μM) was added to initiate reactions and absorbance (550 nm) was monitored at 15 second intervals or following termination (10 minutes, 0° C.). […]

PMN = assay: 32PO4 incorporation into non-saponifiable lipids of PMN labeled with γ-32PO4-ATP; assay type: cell-based, human; conditions: GM-CSF 25 ng/ml, 60 min, 37° C.; relative to cells without agonist
Method: To determine FMLP (10−^7 M)-induced changes in compound VI and VIII mass (inset), radioactive compounds were eluted and inorganic phosphorus levels were measured. In addition, PMN labeled with γ-^32PO4-ATP were incubated in the presence or absence of GM-CSF (25 ng/ml, 60 min, 37° C.)(b) with ^32P content quantitated as above. Values represent the mean±SEM for duplicate determinations from at least two separate PMN. The percent increase after exposure to GM-CSF is relative to parallel incubations with cells in the absence of agonist. **p<0.0005 and * p<0.03 by Student's paired t-test.

CC(C)=CCC/C(C)=C/CC/C(C)=C/C1C(COP(=O)(O)O)C1(C)CC/C=C(\C)CCC=C(C)C (stereo in doubt) [Compound VIII, presqualene monophosphate]
influence on PMA-stimulated O2- production ([1]; PMA 10^-7 M, electroporated neutrophils): not significantly influenced | inhibition of neutrophil superoxide anion generation ([1]; nM-μM amounts): not | FMLP-triggered O2- production in the presence of the compound ([1]; nM-μM quantities, electroporated neutrophils): unaltered | stimulation of O2- production by the compound alone ([1]; no agonist, 1 μM (FIG. 3c)): neither compound VI nor VIII alone stimulated | stimulation of adhesion by the compound alone (neutrophils; no agonist): neither compound VI nor VIII alone stimulated | inhibition of FMLP-stimulated homotypic adhesion (neutrophils; μM levels): not | inhibition of 1,4,5-inositol-triphosphate formation (human neutrophils): not

CCCCCCCCCC(=O)OC[C@H](COP(=O)(O)O)OC(=O)CCCCCCCCC [phosphatitic acid]
rate of superoxide anion generation (O2- production) (neutrophil sonicates): 1.34 nmoles/mg protein/min

GM-CSF: granulocyte/monocyte-colony stimulating factor, cytokine
increase of 32PO4 incorporation into compound VI (PMN): 45.0% | increase of 32PO4 incorporation into compound VIII (PMN): 84.1%

CCCCC/C=C\C/C=C\C/C=C\C/C=C\CCCC(=O)O [arachidonic acid]
rate of superoxide anion generation (O2- production) (neutrophil sonicates): 1.38 nmoles/mg protein/min
